Measured values reported in patent US10196668B2, “Reagents and methods for screening MPS I, II, IIIA, IIIB, IVA, VI, and VII” (University of Washington through its Center for …, priority 2013, dated 2019).
Structures can show the parent of a compound that is named as a salt.

Legend:
[1] = system: N-acetylgalactosamine-6-sulfatase (GALNS); experiment: GALNS (MPS-IVA) assay with beta-NGA and Z-PUG-NAc, UHPLC-MS/MS; type: biochemical, human
Experimental: (§1) Experiment 1. A 3 mm punch of a dried blood spot from a random newborn is incubated with 0.03 mL of assay cocktail consisting of 1 mM GALNS substrate in 50 mM ammonium formate pH 4.0 containing 7.5 mM barium acetate, 5.0 mM cerium acetate, 1 mM Z-PUG-NAc, and 0.01 mg of bacterial beta-N-acetylgalactosaminidase. The mixture also contains 0.005 mM internal standard. After 16 hrs at 37° C. with shaking, the mixture is quenched with 0.12 mL of acetonitrile and the sample plate is centrifuged to pellet the precipitate. Supernatant (0.12 mL) is transferred to a new plate, and 0.12 mL of water is added. The plate is placed on the autosampler of the UHPLC-MS/MS instrument (Waters Xevo TQ MS/MS with a Waters Acquity UHPLC system). A portion of the sample (0.01 mL) is injected, and the GALNS product (substrate minus sulfate), the internal standard, and the aglycones derived from the GALNS product and internal standard are quantified by multiple reaction monitoring (MS/MS). Note the internal standard added, like the GALNS product, is converted to its aglycone by the addition of bacterial beta-N-acetylgalactosaminidase.
(§2) Experiment 2. Experiment 2 is the same as Experiment 1 but uses a punch of filter paper (no blood). Most of the internal standard is converted to the aglycone showing that the added beta-NGA is working. The amount of aglycone is only 42,000, about 10-fold lower than that seen in the presence of blood. […] Furthermore when a dried blood spot from a confirmed Morquio A patient is used, the amount of aglycone is similar to that seen in the absence of blood (45,000) showing that the assay is working to detect only the GALNS present in blood from a non-affected individual.
(§3) Experiment 3. […] As expected, most of the internal standard is not converted to its aglycone, because is no beta-NAG and any hexosaminidase A coming from the blood is blocked by Z-PUG-NAc. The amount of GALNS product is 121,000 and the amount of aglycone is 42,900.
(§4) Experiment 4. Experiment 4 is the same as Experiment 3, but without blood. […] Thus, most of the 121,000 product counts in Experiment 3 is due to GALNS. The product counts in Experiment 3 cannot be due to hexosaminidase A, because only beta-NGA generates the aglycone. The amount of aglycone in Experiments 3 and 4 are similar, and this represents aglycone present in the GALNS substrate as a contaminant.
(§5) Experiment 5. […] Most of the internal standard is converted to its aglycone as expected because beta-NGA is present. The signal for aglycone is 1,350,000, much larger than in Experiment 1.
(§6) Experiment 6. Experiment 6 contains blood but no beta-NGA and no Z-PUG-NAc. The amount of GALNS product is 110,000 instead of 25,100 as in Experiment 5, which is due to the action of GALNS on the GALNS substrate. Because beta-NGA is absent, only a small amount of GALNS product is converted to aglycone, but the amount of aglycone remains high at 1,110,000. This is because of the action of hexosaminidase A in the blood on GALNS substrate in the absence of Z-PUG-NAc.
(§7) Experiments 7 and 8. Experiments 7 and 8 are with filter paper (no blood). […] As expected, most of the internal standard is converted to aglycone in Experiment 7, but not in Experiment 8. […] These can be removed by a further round of purification of GALNS substrate.

[2] = molecular target: T1, N-acetylgalactosamine-6-sulfatase (GALNS) (Homo sapiens, UniProt P34059); experiment: as above; type: biochemical
T1 construct: Representative assays use dried blood spots on newborn screening cards as a source of GALNS; from tissue; host or cells: dried blood spot from a random newborn (3 mm punch)
T1 sequence (P34059 27-522): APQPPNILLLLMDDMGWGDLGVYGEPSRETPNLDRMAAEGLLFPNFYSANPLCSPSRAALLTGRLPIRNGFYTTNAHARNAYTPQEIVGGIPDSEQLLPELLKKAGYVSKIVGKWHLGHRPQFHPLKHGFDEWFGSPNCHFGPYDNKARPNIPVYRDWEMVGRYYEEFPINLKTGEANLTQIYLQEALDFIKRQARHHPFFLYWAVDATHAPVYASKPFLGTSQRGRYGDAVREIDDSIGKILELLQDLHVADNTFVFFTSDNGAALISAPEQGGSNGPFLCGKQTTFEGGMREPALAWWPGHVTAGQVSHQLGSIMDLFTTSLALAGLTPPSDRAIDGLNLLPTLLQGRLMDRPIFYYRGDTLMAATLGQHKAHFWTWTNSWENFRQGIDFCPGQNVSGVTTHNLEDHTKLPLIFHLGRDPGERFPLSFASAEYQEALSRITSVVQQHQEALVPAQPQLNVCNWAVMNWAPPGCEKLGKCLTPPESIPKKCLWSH
Experimental: as §1, §2, §3, §4, §5, §6, §7

[3] = Expt. 1: 3 mm dried blood spot punch, 1 mM Z-PUG-NAc, 0.01 mg beta-NGA
[4] = Expt. 2: 3 mm filter paper punch (no blood), 1 mM Z-PUG-NAc, 0.01 mg of bacterial enzyme
[5] = Expt. 3: 3 mm dried blood spot punch, 1 mM Z-PUG-NAc, no beta-NGA
[6] = Expt. 4: 3 mm filter paper punch (no blood), 1 mM Z-PUG-NAc, no beta-NGA
[7] = Expt. 5: 3 mm dried blood spot punch, 0.01 mg beta-NGA, no Z-PUG-NAc
[8] = Expt. 6: 3 mm dried blood spot punch, Nothing added (no beta-NGA, no Z-PUG-NAc)
[9] = Expt. 7: 3 mm filter paper punch (no blood), 0.01 mg beta-NGA, no Z-PUG-NAc
[10] = Expt. 8: 3 mm filter paper punch (no blood), Nothing added

[2H]c1c([2H])c([2H])c(C(=O)NCCCCCN(CCC(=O)Nc2ccc(OC3OC(CO)C(O)C(O)C3NC(C)=O)cc2)C(=O)CCCC)c([2H])c1[2H] (stereo not drawn) [GALNS internal standard]
GALNS internal standard peak area [1, 3]: 278 | internal standard aglycone peak area [1, 3]: 54,400 | GALNS internal standard peak area [1, 4]: 3,290 | internal standard aglycone peak area [1, 4]: 15,900 | GALNS internal standard peak area [1, 5]: 23,500 | internal standard aglycone peak area [1, 5]: 940 | GALNS internal standard peak area [1, 6]: 14,700 | internal standard aglycone peak area [1, 6]: 412 | GALNS internal standard peak area [1, 7]: 852 | internal standard aglycone peak area [1, 7]: 49,200 | GALNS internal standard peak area [1, 8]: 17,900 | internal standard aglycone peak area [1, 8]: 17,100 | GALNS internal standard peak area [1, 9]: 1,920 | internal standard aglycone peak area [1, 9]: 22,200 | GALNS internal standard peak area [1, 10]: 12,100 | internal standard aglycone peak area [1, 10]: 648

CCCCC(=O)N(CCCCCNC(=O)c1ccccc1)CCC(=O)Nc1ccc(OC2OC(COS(=O)(=O)O)C(O)C(O)C2NC(C)=O)cc1 [GALNS substrate, Sodium ((2R,3R,4R,5R,6S)-5-acetamido-6(4(3(N (5-benzamidopentyl)-pentanamido)propanamido)phenoxy)-3,4-dihydroxytetrahydro-2H-pyran-2-yl)methyl sulfate]
GALNS product (substrate without sulfate) peak area [1, 4]: 422 | aglycone peak area (product without sugar) [1, 4]: 42,000 | aglycone peak area (product without sugar) [1, 5]: 42,900 | GALNS product (substrate without sulfate) peak area [1, 6]: 753 | aglycone peak area (product without sugar) [1, 6]: 22,700 | aglycone peak area (product without sugar) [1, 7]: 1,350,000 | aglycone peak area (product without sugar) [1, 8]: 1,110,000 | GALNS product (substrate without sulfate) peak area [1, 9]: 253 | aglycone peak area (product without sugar) [1, 9]: 19,800 | GALNS product (substrate without sulfate) peak area [1, 10]: 820 | aglycone peak area (product without sugar) [1, 10]: 14,500 | amount of aglycone (peak area) ([1]; dried blood spot from a confirmed Morquio A patient, 1 mM Z-PUG-NAc, 0.01 mg beta-NGA): 45,000 | GALNS product (substrate without sulfate) peak area [2, 3]: 46,100 | aglycone peak area (product without sugar) [2, 3]: 411,000 | GALNS product (substrate without sulfate) peak area [2, 5]: 121,000 | GALNS product (substrate without sulfate) peak area [2, 7]: 25,100 | GALNS product (substrate without sulfate) peak area [2, 8]: 110,000
